Each structure is given as a SMILES string. A value given as a limit tells only on which side of the number the result lay.

The subject of the assay is lung cancer cell line NCI-H82. Kind of assay: Cell proliferation assay, NCI-H82 (CELL-TITER GLO). Conditions: Homo sapiens, NCI-H82, 72 h, NCI-H82 cells, 72 h incubation, cell viability by CELL-TITER GLO, top concentration 1 μM; read-out: EC50, Inhibition of NCl-H82 Cell Proliferation. Format: cell-based. In outline: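 NCI-H82 cells, 1,000 per well in RPMI1640, were treated after overnight plating with a 3-fold dilution series from 1 μM. Viability read by CellTiter-Glo luminescence after 72 h. EC50 derived from the curves.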
For the molecule `C#Cc1nc(NC(=O)N(C)[C@@H](CO)c2ccc(-c3cccnc3C3(C#N)CC3)c(Cl)c2)cs1` [Compound A67, (R)-1-(1-(3-Chloro-4-(2-(1-cyanocyclopropyl)pyridin-3-yl)phenyl)-2-hydroxy-ethyl)-3-(2-ethynylthiazol-4-yl)-1-methylurea], the EC50 was at most 200 nM.
On to `C#Cc1nc(NC(=O)N[C@@H](C(=O)NC)c2ccc(-c3cccc(C(=O)CC)c3)cc2)cs1` [Compound A219, (R)-2-(3-(2-Ethynylthiazol-4-yl)ureido)-N-methyl-2-(3′-propionyl-[1,1′-biphenyl]-4-yl)acetamide], for which the EC50 was at most 200 nM.
Consider `C#Cc1nc(NC(=O)N[C@H](CO)C(=O)N2CCC(c3ccccc3C#N)CC2)cs1` [Compound A146, (R)-1-(1-(4-(2-Cyanophenyl)piperidin-1-yl)-3-hydroxy-1-oxopropan-2-yl)-3-(2-ethynylthiazol-4-yl)urea], for which the EC50 was 200 to 1000 nM.
Regarding `C#Cc1nc(NC(=O)N[C@@H](COC(N)=O)c2ccc(-c3cccc(C4(C#N)CC4)c3)cn2)cs1` [Compound A236, (R)-2-(5-(3-(1-Cyanocyclopropyl)phenyl)pyridin-2-yl)-2-(3-(2-ethynylthiazol-4-yl)ureido)ethyl carbamate], the EC50 was at most 200 nM.
The result for `C#Cc1nc(NC(=O)NCC2CCN(c3ccccc3C#N)CC2)cs1` [Compound A37, 1-((1-(2-Cyanophenyl)piperidin-4-yl)methyl)-3-(2-ethynylthiazol-4-yl)urea] reads at most 200 nM.
The result for `C#Cc1nc(NC(=O)N[C@@H](CO)c2ccc(N3CC(F)(F)C3)cc2)cs1` [Compound A126, (R)-1-(1-(4-(3,3-Difluoroazetidin-1-yl)phenyl)-2-hydroxyethyl)-3-(2-ethynyl-thiazol-4-yl)urea] reads at most 200 nM; that for `C#Cc1nc(NC(=O)N[C@@H](CO)c2ccc(-c3cccc4ncnc(O)c34)cc2)cs1` [Compound A109, (R)-1-(2-Ethynylthiazol-4-yl)-3-(2-hydroxy-1-(4-(4-hydroxyquinazolin-5-yl)phenyl)ethyl)urea], at most 200 nM.
As to `C#Cc1nc(NC(=O)N(C)[C@@H](CO)c2ccc(-c3ccc(F)cc3C3CC3(F)F)cn2)cs1` (stereo partly drawn) [Compound A82, 1-((1R)-1-(5-(2-(2,2-Difluorocyclopropyl)-4-fluorophenyl)pyridin-2-yl)-2-hydroxyethyl)-3-(2-ethynylthiazol-4-yl)-1-methylurea], the EC50 is at most 200 nM.
In the case of `C#Cc1nc(NC(=O)NCC23CC4CC(CC(C4)C2)C3)cs1` [Compound A38, 1-(Adamantan-1-ylmethyl)-3-(2-ethynylthiazol-4-yl)urea], the EC50 was at most 200 nM.
Take `C#Cc1nc(NC(=O)N[C@@H](CO)C(=O)N2CCC3(CC2)CCC(F)(F)CC3)cs1` [Compound A158, (S)-1-(1-(9,9-Difluoro-3-azaspiro[5.5]undecan-3-yl)-3-hydroxy-1-oxopropan-2-yl)-3-(2-ethynylthiazol-4-yl)urea]: the EC50 is at most 200 nM.
In the case of `C#Cc1ncc(NC(=O)N[C@@H](CO)C(=O)N2CCC3(CCCC3=O)CC2)s1` [Compound A156, (S)-1-(2-Ethynylthiazol-5-yl)-3-(3-hydroxy-1-oxo-1-(1-oxo-8-azaspiro[4.5]decan-8-yl)propan-2-yl)urea] it was at most 200 nM; in that of `C#Cc1nc(NC(=O)N[C@@H](CO)c2ccc(-c3cccc4ncsc34)cc2)ns1` [Compound A122, (R)-1-(1-(4-(Benzo[d]thiazol-7-yl)phenyl)-2-hydroxyethyl)-3-(5-ethynyl-1,2,4-thiadiazol-3-yl)urea], 200 to 1000 nM; in that of `C#Cc1nc(NC(=O)N[C@@H](COC(N)=O)c2ccc(-c3cccc4nccnc34)cc2)cs1` [Compound A51, (R)-2-(3-(2-Ethynylthiazol-4-yl)ureido)-2-(4-(quinoxalin-5-yl)phenyl)ethyl carbamate], at most 200 nM.
In the case of `C#Cc1nc(NC(=O)NCc2ccc(N3CCCC3C(N)=O)cc2)cs1` (stereo not shown) [Compound A31, 1-(4-((3-(2-Ethynylthiazol-4-yl)ureido)methyl)phenyl)pyrrolidine-2-carboxamide] it was 200 to 1000 nM; in that of `C#Cc1nc(NC(=O)NCc2ccc(-c3ccccc3C#N)cc2)cs1` [Compound A29, 1-((2′-Cyano-[1,1′-biphenyl]-4-yl)methyl)-3-(2-ethynylthiazol-4-yl)urea], at most 200 nM; in that of `C#Cc1nc(NC(=O)N[C@@H](CO)c2ccc(-c3cccc4ncsc34)cc2)cs1` [Compound A40, (R)-1-(1-(4-(Benzo[d]thiazol-7-yl)phenyl)-2-hydroxyethyl)-3-(2-ethynylthiazol-4-yl)urea], at most 200 nM.
As for `C#Cc1nc(NC(=O)N[C@@H](CO)c2ccc(C3CCCN(C)C3)cc2)cs1` (stereo partly drawn) [Compound A192, 1-(2-Ethynylthiazol-4-yl)-3-((1R)-2-hydroxy-1-(4-(1-methylpiperidin-3-yl)-phenyl)ethyl)urea], the EC50 was in the range of 200 to 1000 nM.
Take `C#Cc1nc(NC(=O)N[C@@H](COC(N)=O)c2ccc(-c3cccc4ccncc34)cc2)cs1` [Compound A49, (R)-2-(3-(2-Ethynylthiazol-4-yl)ureido)-2-(4-(isoquinolin-8-yl)phenyl)ethyl carbamate]: the EC50 is at most 200 nM.
Consider `C#Cc1nc(NC(=O)N[C@H](CO)C(=O)N2CC(c3ccccc3C#N)C2)cs1` [Compound A144, (R)-1-(1-(3-(2-Cyanophenyl)azetidin-1-yl)-3-hydroxy-1-oxopropan-2-yl)-3-(2-ethynylthiazol-4-yl)urea], for which the EC50 was 200 to 1000 nM.
Consider `C#Cc1nc(NC(=O)N[C@H](C(=O)NC)c2ccc(-c3cccc4ncsc34)cc2)cs1` [Compound A216, (S)-2-(4-(Benzo[d]thiazol-7-yl)phenyl)-2-(3-(2-ethynylthiazol-4-yl)ureido)-N-methylacetamide], for which the EC50 was at most 200 nM.
In the case of `C#Cc1nc(NC(=O)N[C@@H](COC(C)=O)c2ccc(-c3cccc4ncsc34)cc2)cs1` [Compound A201, (R)-2-(4-(Benzo[d]thiazol-7-yl)phenyl)-2-(3-(2-ethynylthiazol-4-yl)ureido)ethyl acetate] it was at most 200 nM; in that of `C#Cc1nc(NC(=O)N(C)[C@@H](COC(N)=O)c2ccc(-c3cccc(N4CCCC4)n3)cn2)cs1` [Compound A92, (R)-2-(3-(2-Ethynylthiazol-4-yl)-1-methylureido)-2-(6-(pyrrolidin-1-yl)-[2,3′-bipyridin]-6′-yl)ethyl carbamate], at most 200 nM.
The result for `C#Cc1nc(NC(=O)N[C@@H](CO)C(=O)N2CCC(c3ccccc3C#N)CC2)cs1` [Compound A147, (S)-1-(1-(4-(2-Cyanophenyl)piperidin-1-yl)-3-hydroxy-1-oxopropan-2-yl)-3-(2-ethynylthiazol-4-yl)urea] reads 200 to 1000 nM.
With `C#Cc1nc(NC(=O)N[C@@H](COC(N)=O)c2ccc(-c3cccc4nnsc34)cc2)cs1` [Compound A225, (R)-2-(4-(Benzo[d][1,2,3]thiadiazol-7-yl)phenyl)-2-(3-(2-ethynylthiazol-4-yl)-ureido)ethyl carbamate], the EC50 was at most 200 nM.
In the case of `C#Cc1nc(NC(=O)N2CCN(c3ccc(-c4cccc(N5CCCC5)c4)cn3)C[C@@H]2CO)cs1` [Compound B56, (R)—N-(2-Ethynylthiazol-4-yl)-2-(hydroxymethyl)-4-(5-(3-(pyrrolidin-1-yl)-phenyl)pyridin-2-yl)piperazine-1-carboxamide] it was at most 200 nM.
